Measured values taken from US20260317356A1, “SMALL MOLECULE MODULATORS OF OGG1” (AZKARRA THERAPEUTICS, INC., priority 2023, published 2026).

Target: hOGG1 (Homo sapiens, UniProt O15527)
Experiment: Biochemical fluorescence assay to measure enzymatic activity of hOGG1 (OGG1/APEX IC50)
Set-up: Protein His-hOGG1 (12-323) was prepared; His (N); host or cells: E. coli
Settings: 1 nM OGG1+2 nM APEX+6 nM dsDNA (8-oxo-dG substrate); pH 7.5; RT 40 min; read-out: OGG1/APEX IC50
Protocol: Biological Example 1: Biochemical Assay to Measure Enzymatic Activity of hOGG1 (OGG1/APEX IC50)
The reported fluorescence-based assay (Donley et al ACS Chem Biol 2015; 10 (10), 2334-2343) was modified to include hAPE1/APEX1 protein. The oligonucleotide substrate with 8-oxo-dG lesion at X was prepared (LGC Biosearch, Petaluma, CA):
Protein His-hOGG1 (12-323) was prepared by Chempartner Corporation via E. coliexpression and purification by Ni-NTA and S200 column to afford 95% purity by SDS-PAGE and SEC-HPLC analysis and hAPE1/APEX1 was purchased (SinoBiological). The assay was run in 384-well plates following the general procedure: (1) compound dilution; (2) addition of hOGG1/APEX1 to compound wells; (3) addition of DNA substrate to compound wells; (4) read Ex520/Em600 (TAMRA) fluorescence signal after 40 minutes; (5) calculate % inhibition/compound concentration; (6) calculate dose-response curve and IC50 value.
• (1) 20 mM of compound solution was prepared in DMSO; • (2) Compounds were diluted to 10 mM in DMSO in ECHO Source plate (Labcyte PP-0200), by mixing […] DMSO; • (3) 4× dilution of compounds, for 10 points, by mixing […] DMSO; and • (4) Dispensed 150 nL compounds to assay plate (Corning 3573) in column 3-22. Dispensed 150 nL DMSO to Min and Max control wells in column 1-2 and column 23-24.
• (1) Assay buffer was prepared (20 mM Tris pH 7.5, 100 mM KCl, 0.1% BSA, 0.01% Tween). • (2) […] buffer was added to Min control wells (Column 1-2). • (3) Enzyme was diluted to 2× with buffer (2 nM OGG1+4 nM APEX1). Dispensed […] (except Min control wells). Shake at 500 rpm at RT for 20 min. • (4) DNA substrate diluted to 2× with buffer (12 nM). Dispensed […]. Final concentration: 1 nM OGG1+2 nM APEX+6 nM dsDNA. Shake at RT for 40 min. • (5) Ex520/Em600 (TAMRA) was read.
• (1) Calculated respective mean of Max and Min control wells. • (2) Converted data to percentage inhibition.
Inhibition (%)=(Max mean−value)/(Max mean−Min mean)×100% • (3) Calculated sigmoidal curve (3-parameter) and IC50 (using GraphPad Prism software).

hOGG1, sequence (O15527 12-323): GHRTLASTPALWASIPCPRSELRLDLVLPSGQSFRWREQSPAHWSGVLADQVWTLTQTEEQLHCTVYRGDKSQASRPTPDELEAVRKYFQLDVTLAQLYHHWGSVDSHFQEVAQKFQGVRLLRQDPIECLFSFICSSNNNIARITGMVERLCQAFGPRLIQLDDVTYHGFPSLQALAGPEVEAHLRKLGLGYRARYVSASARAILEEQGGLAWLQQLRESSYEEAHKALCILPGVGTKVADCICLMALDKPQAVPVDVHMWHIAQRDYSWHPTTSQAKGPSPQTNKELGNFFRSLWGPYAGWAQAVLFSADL

SMILES | IC50
COc1cc(NC(=O)[C@H]2CC[C@@H](N3Cc4c(C)cc(NCCN(C)C)cc4NC3=O)CC2)ccc1C [Example 96, (1s,4s)-4-(7-(2-(dimethylamino)ethylamino)-5-methyl-2-oxo-1,2-dihydroquinazolin-3(4H)-yl)-N-(3-methoxy-4-methylphenyl)cyclohexanecarboxamide] | < 100 nM
COc1cc(NC(=O)[C@H]2CC[C@@H](N3Cc4c(C)cccc4NC3=O)CC2)ccc1C [Example 69, (1s,4s)-N-(3-methoxy-4-methylphenyl)-4-(5-methyl-2-oxo-1,2-dihydroquinazolin-3(4H)-yl)cyclohexanecarboxamide] | < 100 nM
CNCCNc1cc(Br)c2c(c1)C(=O)N([C@H]1CC[C@@H](C(=O)Nc3ccc(C)c(OC)c3)CC1)C2 [Example 175, (1s,4s)-4-(4-Bromo-6-(2-(methylamino)ethylamino)-1-oxoisoindolin-2-yl)-N-(3-methoxy-4-methylphenyl)cyclohexanecarboxamide] | < 100 nM
CCOC(=O)c1cccc2c1CN([C@H]1CC[C@@H](C(=O)Nc3ccc(C)c(OC)c3)CC1)C2=O [Example 169, Ethyl 2-((1s,4s)-4-(3-methoxy-4-methylphenylcarbamoyl)cyclohexyl)-1-oxoisoindoline-4-carboxylate] | > 10000 nM
COc1cc(NC(=O)[C@H]2CC[C@@H](N3Cc4ccccc4C3=O)CC2)ccc1C [Example 148, (1s,4s)-N-(3-Methoxy-4-methylphenyl)-4-(1-oxoisoindolin-2-yl)cyclohexanecarboxamide] | 1000 to 10000 nM
COc1cc(NC(=O)[C@H]2CC[C@@H](N3Cc4c(C)cncc4NC3=O)CC2)ccc1C [Example 37, (1s,4s)-N-(3-Methoxy-4-methylphenyl)-4-(5-methyl-2-oxo-1,2-dihydropyrido[3,4-d]pyrimidin-3(4H)-yl)cyclohexanecarboxamide] | < 100 nM
COc1cc(NC(=O)[C@H]2CC[C@@H](N3Cc4c(ccc(N)c4C)NC3=O)CC2)ccc1C [Example 46, (1s,4s)-4-(6-Amino-5-methyl-2-oxo-1,2-dihydroquinazolin-3(4H)-yl)-N-(3-methoxy-4-methylphenyl)cyclohexanecarboxamide] | 1000 to 10000 nM
COc1cc(NC(=O)[C@H]2CC[C@@H](N3Cc4c(C)cc(OCC5(F)CNC5)cc4C3=O)CC2)ccc1C [Example 141, (1s,4s)-4-(6-((3-Fluoroazetidin-3-yl)methoxy)-4-methyl-1-oxoisoindolin-2-yl)-N-(3-methoxy-4-methylphenyl)cyclohexanecarboxamide] | < 100 nM
COc1cc(NC(=O)[C@H]2CC[C@@H](N3Cc4c(Br)cncc4C3=O)CC2)ccc1C [Example 183, (1s,4s)-4-(7-bromo-3-oxo-1H-pyrrolo[3,4-c]pyridin-2(3H)-yl)-N-(3-methoxy-4-methylphenyl)cyclohexanecarboxamide] | 100 to 1000 nM
COc1cc(NC(=O)[C@H]2CC[C@@H](N3Cc4c(C)cc(C(=O)NCCN(C)C)cc4NC3=O)CC2)ccc1C [Example 84, N-(2-(dimethylamino)ethyl)-3-((1s,4s)-4-(3-methoxy-4-methylphenylcarbamoyl)cyclohexyl)-5-methyl-2-oxo-1,2,3,4-tetrahydroquinazoline-7-carboxamide] | < 100 nM
COc1cc(NC(=O)[C@H]2CC[C@@H](N3Cc4c(C)ccc(C5CC5)c4NC3=O)CC2)ccc1C [Example 39, (1s,4s)-4-(8-Cyclopropyl-5-methyl-2-oxo-1,2-dihydroquinazolin-3(4H)-yl)-N-(3-methoxy-4-methylphenyl)cyclohexanecarboxamide] | < 100 nM
COc1cc(NC(=O)[C@H]2CC[C@@H](N3Cc4c(ccc(C#N)c4C)NC3=O)CC2)ccc1C [Example 56, (1s,4s)-4-(6-Cyano-5-methyl-2-oxo-1,2-dihydroquinazolin-3(4H)-yl)-N-(3-methoxy-4-methylphenyl)cyclohexanecarboxamide] | 100 to 1000 nM
COc1cc(NC(=O)[C@H]2CC[C@H](N3Cc4c(C)cc(NCCN(C)C)cc4NC3=O)CC2)ccc1C [Example 85, (1r,4r)-4-(7-(2-(dimethylamino)ethylamino)-5-methyl-2-oxo-1,2-dihydroquinazolin-3(4H)-yl)-N-(3-methoxy-4-methylphenyl)cyclohexanecarboxamide] | 100 to 1000 nM
COc1cc(NC(=O)N2CCC(N3Cc4c(Br)cccc4C3=O)CC2)ccc1C [Example 181, 4-(4-Bromo-1-oxoisoindolin-2-yl)-N-(3-methoxy-4-methylphenyl)piperidine-1-carboxamide] | 1000 to 10000 nM
COc1ccc(NC(=O)[C@H]2CC[C@@H](N3Cc4c(C)cccc4NC3=O)CC2)cc1C [Example 87, (1s,4s)-N-(4-methoxy-3-methylphenyl)-4-(5-methyl-2-oxo-1,2-dihydroquinazolin-3(4H)-yl)cyclohexanecarboxamide] | < 100 nM
COc1cc(NC(=O)[C@]2(C)CC[C@@H](N3Cc4c(C)cccc4NC3=O)CC2)ccc1C (single isomer, unassigned) [Example 102, (1r,4r)-N-(3-methoxy-4-methylphenyl)-1-methyl-4-(5-methyl-2-oxo-1,2-dihydroquinazolin-3(4H)-yl)cyclohexanecarboxamide] | 1000 to 10000 nM
COc1cc(NC(=O)[C@H]2CC[C@@H](N3Cc4c(C)cc(NCC5(O)CNC5)cc4C3=O)CC2)ccc1C [Example 136, (1s,4s)-4-(6-(((3-hydroxyazetidin-3-yl)methyl)amino)-4-methyl-1-oxoisoindolin-2-yl)-N-(3-methoxy-4-methylphenyl)cyclohexanecarboxamide] | < 100 nM

Now from value to compound:

IC50 | SMILES
100 to 1000 nM | Cc1cccc2c1CN([C@H]1CC[C@@H](C(=O)Nc3ccc(Cl)c(Cl)c3)CC1)C2=O [Example 237, (1s,4s)-N-(3,4-Dichlorophenyl)-4-(4-methyl-1-oxoisoindolin-2-yl)cyclohexanecarboxamide]
> 10000 nM | Cc1cccc2c1CN([C@H]1CC[C@@H](C(=O)Nc3nc(C)c(C)s3)CC1)C2=O [Example 240, (1s,4s)-N-(4,5-Dimethylthiazol-2-yl)-4-(4-methyl-1-oxoisoindolin-2-yl)cyclohexanecarboxamide]
100 to 1000 nM | COc1ccc(NC(=O)[C@H]2CC[C@@H](N3Cc4c(C)cccc4C3=O)CC2)cc1OC [Example 219, (1s,4s)-N-(3,4-dimethoxyphenyl)-4-(4-methyl-1-oxoisoindolin-2-yl)cyclohexanecarboxamide]
< 100 nM | COc1cc(NC(=O)[C@H]2CC[C@@H](N3Cc4c(C)cc(NCC5CCCN5)cc4C3=O)CC2)ccc1C (some centres unmarked) [Example 194, (1s,4s)-N-(3-methoxy-4-methylphenyl)-4-(4-methyl-1-oxo-6-(pyrrolidin-2-ylmethylamino)isoindolin-2-yl)cyclohexanecarboxamide]
100 to 1000 nM | Cc1cc(NC(=O)[C@H]2CC[C@@H](N3Cc4c(C)cccc4C3=O)CC2)ccc1O [Example 220, (1s,4s)-N-(4-Hydroxy-3-methylphenyl)-4-(4-methyl-1-oxoisoindolin-2-yl)cyclohexanecarboxamide]
100 to 1000 nM | COc1ccc(NC(=O)[C@H]2CC[C@@H](N3Cc4c(C)cccc4C3=O)CC2)cc1Cl [Example 238, (1s,4s)-N-(3-Chloro-4-methoxyphenyl)-4-(4-methyl-1-oxoisoindolin-2-yl)cyclohexanecarboxamide]
100 to 1000 nM | COc1cc(NC(=O)[C@H]2CC[C@@H](N3Cc4c(ccc(O)c4Br)C3=O)CC2)ccc1C [Example 189, (1s,4s)-4-(4-Bromo-5-hydroxy-1-oxoisoindolin-2-yl)-N-(3-methoxy-4-methylphenyl)cyclohexanecarboxamide]
100 to 1000 nM | COc1c(F)cc(NC(=O)[C@H]2CC[C@@H](N3Cc4c(C)cccc4C3=O)CC2)cc1F [Example 243, (1s,4s)-N-(3,5-Difluoro-4-methoxyphenyl)-4-(4-methyl-1-oxoisoindolin-2-yl)cyclohexanecarboxamide]

Same assay, conditions: OGG1/APEX IC50, 1 nM OGG1+2 nM APEX+6 nM dsDNA (8-oxo-dG substrate); pH 7.5; RT 40 min

IC50 | SMILES
< 100 nM | COc1cc(NC(=O)[C@H]2CC[C@@H](N3Cc4c(C)cc(N)cc4C3=O)CC2)ccc1C [Example 192, (1s,4s)-4-(6-Amino-4-methyl-1-oxoisoindolin-2-yl)-N-(3-methoxy-4-methylphenyl)cyclohexanecarboxamide]
